pIC50: −log10 of the molar value.
How the values were obtained:
[1] = target: T1, Sortase family protein (Staphylococcus aureus, UniProt Q9S446); experiment: Inhibition of recombinant Staphylococcus aureus ATCC 6538p sortase lacking the N-terminal membrane anchor domain expressed in Escherichia coli cells TOP10 using Dabcyl-QALPETGEE-Edans substrate measured after 1 hr by fluorescence S13 spectrophotometry
T1 sequence (Q9S446 whole entry): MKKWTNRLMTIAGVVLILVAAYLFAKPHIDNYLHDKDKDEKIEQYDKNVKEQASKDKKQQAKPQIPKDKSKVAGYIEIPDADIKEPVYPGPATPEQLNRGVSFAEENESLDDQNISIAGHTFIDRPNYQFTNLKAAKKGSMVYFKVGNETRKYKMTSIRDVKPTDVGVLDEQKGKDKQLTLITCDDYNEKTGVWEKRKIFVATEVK

[2] = target: Isocitrate lyase (Candida albicans, UniProt Q9P8Q7); experiment: Inhibition of Candida albicans isocitrate lyase
Sequence of Isocitrate lyase (Q9P8Q7 whole entry): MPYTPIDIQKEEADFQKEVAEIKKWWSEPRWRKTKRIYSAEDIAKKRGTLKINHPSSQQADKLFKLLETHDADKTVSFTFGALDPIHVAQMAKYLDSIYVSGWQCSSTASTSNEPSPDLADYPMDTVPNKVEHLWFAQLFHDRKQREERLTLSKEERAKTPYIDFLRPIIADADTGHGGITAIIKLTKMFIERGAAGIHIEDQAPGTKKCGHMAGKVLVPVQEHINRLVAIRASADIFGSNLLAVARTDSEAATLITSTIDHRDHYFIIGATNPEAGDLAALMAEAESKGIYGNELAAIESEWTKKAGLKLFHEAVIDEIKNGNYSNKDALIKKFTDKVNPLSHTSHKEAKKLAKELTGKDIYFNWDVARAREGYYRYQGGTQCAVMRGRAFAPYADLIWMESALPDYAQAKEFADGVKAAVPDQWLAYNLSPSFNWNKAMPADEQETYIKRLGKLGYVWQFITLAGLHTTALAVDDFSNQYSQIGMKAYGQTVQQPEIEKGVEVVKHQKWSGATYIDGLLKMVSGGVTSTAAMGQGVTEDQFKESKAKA

pIC50 [2] | Structure (SMILES) | pIC50 [1]
 | O=C(O)c1cc[c]([Hg][OH])cc1 | 3.94
4.77 | CC1(C)CCC[C@]2(C)[C@H]3CC/C(=C\OS(=O)(=O)O)[C@H](CCc4ccoc4)[C@@]3(C)CC[C@@H]12 | 

— BindingDB's records for doi:10.1021/np200492k (Seoul National University, 2011)
